Assay results reported in ChEMBL document CHEMBL4613309, “Identification of 2-(4-(Phenylsulfonyl)piperazine-1-yl)pyrimidine Analogues as Novel Inhibitors of Chikungunya Virus” (ACS Med Chem Lett, 2020).

Tests used:
[1] = in vitro; conditions: chlorocebus sabaeus, Vero cells
[2] = tested on: Chikungunya virus; assay: microbe, parasite or virus in culture

**Q.** For `CCNc1nc(C)cc(N2CCN(C(=O)c3ccc(Cl)cc3)CC2)n1`, which CC50 at 120 h [1] is on record?
**A.** 202 µM

**Q.** And the EC50 [2]?
**A.** 32 µM

**Q.** And the EC90 [2]?
**A.** 108 µM
